The values below come from patent publication US11492335B2, “Aryl or heteroaryl triazolone derivatives or salts thereof, or pharmaceutical compositions comprising the same” (YUHAN CORPORATION, priority 2018, dated 2022).

The IC50 is the concentration that inhibits the measured activity by half.

Where a name gives a salt, the structure may show the parent alone. Some results are limits rather than exact numbers.

What all share (type): biochemical
The target of assay [1] is T1, recombinant human MAO-B (monoamine oxidase-B) (Homo sapiens, UniProt P27338).
T1 construct: purchased Sigma-Aldrich
T1 sequence (P27338 1-520): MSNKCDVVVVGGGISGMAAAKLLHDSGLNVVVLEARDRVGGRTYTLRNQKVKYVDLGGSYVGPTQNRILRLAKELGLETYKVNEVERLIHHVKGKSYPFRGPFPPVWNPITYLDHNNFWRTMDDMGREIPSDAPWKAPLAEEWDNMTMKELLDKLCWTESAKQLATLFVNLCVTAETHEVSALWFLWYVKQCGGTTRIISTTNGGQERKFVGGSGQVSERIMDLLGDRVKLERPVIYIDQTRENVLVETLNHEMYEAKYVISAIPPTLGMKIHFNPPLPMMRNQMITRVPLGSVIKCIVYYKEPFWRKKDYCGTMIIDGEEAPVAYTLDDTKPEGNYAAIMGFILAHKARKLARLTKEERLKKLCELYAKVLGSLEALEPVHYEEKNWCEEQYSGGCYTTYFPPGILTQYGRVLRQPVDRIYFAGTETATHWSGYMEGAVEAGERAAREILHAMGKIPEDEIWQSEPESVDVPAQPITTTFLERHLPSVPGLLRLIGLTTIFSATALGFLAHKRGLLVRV
In words: Activity on recombinant human MAO-B, Amplex Red method, 1 mM benzylamine substrate. Particulars: 1 mM benzylamine substrate, read-out: Inhibitory Activity (IC50, nM) MAO-B. In outline:
(§1)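 First, serially diluted compounds were incubated with recombinant enzyme in 50 mM sodium phosphate, pH 7.4, for 30 min at 37° C. Next, Amplex Red (200 uM), HRP (1 U/mL) and tyramine (0.5 mM, MAO-A) or benzylamine (1 mM, MAO-B) were added. Then fluorescence was monitored over 1-2 h and IC50 fitted.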

Assay [2] addresses T2, recombinant human VAP-1 (Homo sapiens, UniProt Q16853).
T2 construct: purchased R&D systems
T2 sequence (Q16853 1-763): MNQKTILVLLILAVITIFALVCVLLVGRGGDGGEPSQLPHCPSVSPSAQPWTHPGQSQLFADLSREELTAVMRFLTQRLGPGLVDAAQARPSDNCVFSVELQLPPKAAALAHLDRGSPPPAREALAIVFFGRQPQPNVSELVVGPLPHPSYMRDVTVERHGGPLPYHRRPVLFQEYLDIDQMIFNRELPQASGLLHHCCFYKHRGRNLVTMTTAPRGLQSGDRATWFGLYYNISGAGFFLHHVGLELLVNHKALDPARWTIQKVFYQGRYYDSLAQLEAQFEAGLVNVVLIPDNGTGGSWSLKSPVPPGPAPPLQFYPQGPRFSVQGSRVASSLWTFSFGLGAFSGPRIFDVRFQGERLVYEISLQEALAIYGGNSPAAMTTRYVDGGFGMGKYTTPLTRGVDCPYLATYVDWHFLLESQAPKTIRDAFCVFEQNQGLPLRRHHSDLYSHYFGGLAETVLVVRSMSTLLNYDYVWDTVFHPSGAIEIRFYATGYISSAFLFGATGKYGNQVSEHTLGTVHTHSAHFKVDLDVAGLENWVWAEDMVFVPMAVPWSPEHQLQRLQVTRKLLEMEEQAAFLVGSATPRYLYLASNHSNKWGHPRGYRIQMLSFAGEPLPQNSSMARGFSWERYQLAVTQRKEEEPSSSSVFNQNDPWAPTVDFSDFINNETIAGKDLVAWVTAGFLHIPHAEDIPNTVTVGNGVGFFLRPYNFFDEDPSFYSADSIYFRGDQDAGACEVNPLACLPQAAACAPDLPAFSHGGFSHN
In words: Activity on recombinant human VAP-1, Amplex Red HRP-coupled hydrogen peroxide assay, benzylamine substrate. Particulars: recombinant human VAP-1, benzylamine substrate; read-out: Inhibitory Activity (IC50, nM) human VAP-1. In outline: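 H2O2 generation from 1 mM benzylamine was coupled via 1 U/mL HRP to 200 uM Amplex Red; inhibitors, serially diluted 1:3 over 8 points with under 1% final DMSO, had been preincubated 30 min at 37 °C. IC50 from percentage drop in rate.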

Assay [3] deals with T3, recombinant human DAO (diamine oxidase) (Homo sapiens, UniProt P19801).
T3 construct: purchased R&D systems
T3 sequence (P19801 20-751): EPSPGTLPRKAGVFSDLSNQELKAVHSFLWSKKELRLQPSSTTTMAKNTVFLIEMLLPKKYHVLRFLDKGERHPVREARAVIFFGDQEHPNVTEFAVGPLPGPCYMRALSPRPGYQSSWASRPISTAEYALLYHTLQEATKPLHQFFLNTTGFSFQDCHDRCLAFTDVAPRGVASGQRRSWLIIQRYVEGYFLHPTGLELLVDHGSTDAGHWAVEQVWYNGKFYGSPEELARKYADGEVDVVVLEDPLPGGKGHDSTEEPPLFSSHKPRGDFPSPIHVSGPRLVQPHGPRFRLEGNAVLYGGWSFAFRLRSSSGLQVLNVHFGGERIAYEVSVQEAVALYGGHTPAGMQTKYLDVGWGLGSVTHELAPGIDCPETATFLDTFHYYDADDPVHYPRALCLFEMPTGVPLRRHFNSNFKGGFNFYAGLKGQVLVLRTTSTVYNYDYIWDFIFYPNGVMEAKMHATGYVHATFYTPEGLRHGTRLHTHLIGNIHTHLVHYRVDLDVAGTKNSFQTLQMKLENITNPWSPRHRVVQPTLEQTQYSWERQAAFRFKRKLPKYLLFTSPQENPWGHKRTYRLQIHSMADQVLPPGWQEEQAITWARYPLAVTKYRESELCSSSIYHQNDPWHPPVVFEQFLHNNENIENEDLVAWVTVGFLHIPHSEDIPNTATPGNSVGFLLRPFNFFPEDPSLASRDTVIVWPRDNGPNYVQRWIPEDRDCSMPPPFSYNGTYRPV
In words: Activity on recombinant human DAO, Amplex Red method, 1 mM putrescine substrate. Particulars: recombinant human DAO, 1 mM putrescine substrate; read-out: Inhibitory Activity (IC50, nM) DAO. In short, it runs like this: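 Inhibition of recombinant human DAO (diamine oxidase, R&D systems) was assessed with the Amplex Red Hydrogen Peroxide Assay Kit. Hydrogen peroxide produced from 1 mM putrescine was detected through an HRP-coupled reaction that converts Amplex Red into fluorescent resorufin, read at 544 nm excitation and 590 nm emission. IC50 values came from four-parameter logistic fits in GraphPad Prism.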

The target of assay [4] is T4, recombinant human MAO-A (monoamine oxidase-A) (Homo sapiens, UniProt P21397).
T4 construct: purchased Sigma-Aldrich
T4 sequence (P21397 1-527): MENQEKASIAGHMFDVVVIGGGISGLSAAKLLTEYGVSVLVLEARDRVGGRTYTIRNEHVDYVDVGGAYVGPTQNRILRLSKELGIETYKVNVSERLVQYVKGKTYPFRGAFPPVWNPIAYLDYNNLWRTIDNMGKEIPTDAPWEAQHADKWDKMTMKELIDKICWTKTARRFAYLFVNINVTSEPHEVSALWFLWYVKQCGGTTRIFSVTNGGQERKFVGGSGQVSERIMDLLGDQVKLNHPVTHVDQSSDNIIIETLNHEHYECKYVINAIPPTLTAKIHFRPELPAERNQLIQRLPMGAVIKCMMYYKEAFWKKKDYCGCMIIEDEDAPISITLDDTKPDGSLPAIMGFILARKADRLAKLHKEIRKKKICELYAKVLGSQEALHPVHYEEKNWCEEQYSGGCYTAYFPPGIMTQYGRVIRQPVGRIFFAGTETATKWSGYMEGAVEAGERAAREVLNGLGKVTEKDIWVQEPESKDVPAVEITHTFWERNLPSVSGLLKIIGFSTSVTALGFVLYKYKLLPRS
In words: Activity on recombinant human MAO-A, Amplex Red method, 0.5 mM tyramine substrate. Particulars: 0.5 mM tyramine substrate, read-out: Inhibitory Activity (IC50, nM) MAO-A. In short, it runs like this: as §1

For `NC/C(=C\F)Cn1ncn(-c2cccc(-c3ccc(C(F)(F)F)nc3)n2)c1=O` [Example 187, 2-[(2E)-2-(aminomethyl)-3-fluoroprop-2-en-1-yl]-4-[6′-(trifluoromethyl)-2,3′-bipyridin-6-yl]-2,4-dihydro-3H-1,2,4-triazol-3-one hydrochloride], the IC50 was 940 nM in assay [1], 0.45 nM in assay [2], under 10 nM in assay [3] and over 100000 nM in assay [4].
For `CN(C)c1ccc(-c2cccc(-n3cnn(C/C(=C/F)CN)c3=O)n2)cn1` [Example 188, 2-[(2E)-2-(aminomethyl)-3-fluoroprop-2-en-1-yl]-4-[6′-(dimethylamino)-2,3′-bipyridin-6-yl]-2,4-dihydro-3H-1,2,4-triazol-3-one hydrochloride], in that order: 23000 nM, 0.6 nM, 4 nM and over 100000 nM.
For `NC/C(=C\F)Cn1ncn(-c2cccc(-c3ccc(N4CCOCC4)nc3)n2)c1=O` [Example 189, 2-[(2E)-2-(aminomethyl)-3-fluoroprop-2-en-1-yl]-4-[6′-(morpholin-4-yl)-2,3′-bipyridin-6-yl]-2,4-dihydro-3H-1,2,4-triazol-3-one], in that order: over 10000 nM, 0.53 nM, under 30 nM and over 100000 nM.
For `Cc1cc(-c2cccc(-n3cnn(C/C(=C/F)CN)c3=O)n2)cnc1F` [Example 190, 2-[(2E)-2-(aminomethyl)-3-fluoroprop-2-en-1-yl]-4-(6′-fluoro-5′-methyl-2,3′-bipyridin-6-yl)-2,4-dihydro-3H-1,2,4-triazol-3-one hydrochloride], in that order: 190 nM, 0.6 nM, 5 nM and over 100000 nM.
`CN(C)c1ncc(-c2cccc(-n3cnn(C/C(=C/F)CN)c3=O)n2)cc1F` [Example 191, 2-[(2E)-2-(aminomethyl)-3-fluoroprop-2-en-1-yl]-4-[6′-(dimethylamino)-5′-fluoro-2,3′-bipyridin-6-yl]-2,4-dihydro-3H-1,2,4-triazol-3-one hydrochloride]: the IC50 was 1200 nM in assay [1], 0.5 nM in assay [2], 19 nM in assay [3] and over 100000 nM in assay [4].
For `Cn1nc(C(F)(F)F)cc1-c1cccc(-n2cnn(C/C(=C/F)CN)c2=O)n1` [Example 192, 2-[(2E)-2-(aminomethyl)-3-fluoroprop-2-en-1-yl]-4-{6-[1-methyl-3-(trifluoromethyl)-1H-pyrazol-5-yl]pyridin-2-yl}-2,4-dihydro-3H-1,2,4-triazol-3-one hydrochloride], in that order: 250 nM, 1.4 nM, 0.4 nM and over 100000 nM.
For `NC/C(=C\F)Cn1ncn(-c2cccc(-c3ccc4c(c3)OCO4)n2)c1=O` [Example 193, 2-[(2E)-2-(aminomethyl)-3-fluoroprop-2-en-1-yl]-4-[6-(1,3-benzodioxol-5-yl)pyridin-2-yl]-2,4-dihydro-3H-1,2,4-triazol-3-one], in that order: 1160 nM, 2.5 nM, 38 nM and over 100000 nM.
For `NC/C(=C\F)Cn1ncn(-c2cccc(-c3ccc4c(c3)OCCO4)n2)c1=O` [Example 194, 2-[(2E)-2-(aminomethyl)-3-fluoroprop-2-en-1-yl]-4-[6-(2,3-dihydro-1,4-benzodioxin-6-yl)pyridin-2-yl]-2,4-dihydro-3H-1,2,4-triazol-3-one], in that order: 2710 nM, 1.2 nM, 2.9 nM and over 100000 nM.
As for `NC/C(=C\F)Cn1ncn(-c2cccc(-c3ccc4nonc4c3)n2)c1=O` [Example 195, 2-[(2E)-2-(aminomethyl)-3-fluoroprop-2-en-1-yl]-4-[6-(2,1,3-benzooxadiazol-5-yl)pyridin-2-yl]-2,4-dihydro-3H-1,2,4-triazol-3-one], the IC50 is 620 nM in assay [1], 0.66 nM in assay [2], under 30 nM in assay [3] and over 100000 nM in assay [4].
For `NC/C(=C\F)Cn1ncn(-c2cccc(-c3ccc4sc(N)nc4c3)n2)c1=O` [Example 196, 4-[6-(2-amino-1,3-benzothiazol-5-yl)pyridin-2-yl]-2-[(2E)-2-(aminomethyl)-3-fluoroprop-2-en-1-yl]-2,4-dihydro-3H-1,2,4-triazol-3-one], in that order: over 10000 nM, 1.1 nM, 11 nM and over 100000 nM.
For `Cc1cc(-c2cccc(-n3cnn(C/C(=C/F)CN)c3=O)n2)cc2c1NC(=O)CC2` [Example 197, 6-(6-{1-[(2E)-2-(aminomethyl)-3-fluoroprop-2-en-1-yl]-5-oxo-1,5-dihydro-4H-1,2,4-triazol-4-yl}pyridin-2-yl)-8-methyl-3,4-dihydroquinolin-2(1H)-one hydrochloride], in that order: 250 nM, 0.08 nM, 2.6 nM and 81000 nM.
